# Results: patent US20250051391A1, “PEPTIDE INHIBITORS AND METHODS FOR INHIBITING PROTEIN AGGREGATION IN NEURONS AND NEURODEGENERATIVE DISEASES” (THE GOVERNING COUNCIL OF THE UNIVERSITY OF TORONTO, priority 2021, published 2025)
# Ends that are not written are not given here.
# Experiments:
# [1] = tested on: rat primary cortical neurons; assay: Rat primary cortical neurons transduced with AAVs, immunofluorescence and immunoblot; format: cell-based
# Protocol: Infected neurons were scraped from 6-well dishes and lysed with RIPA buffer containing protease inhibitor cocktail (Roche). The Triton X-100 soluble fraction was then separated from the insoluble pellet by centrifugation. Protein concentration was quantified using the DC protein assay (BioRad). For each condition, 20 μg of protein lysate was run on 4-15% acrylamide gels (BioRad) and subsequently transferred onto a polyvinylidene difluoride (PVDF) membrane. Blots were blocked with 5% skim milk in TBS+0.01% Tween-20 (TBS-T) for 1 h prior to incubation with primary antibody overnight at 4° C. Blots were subsequently washed 3 times in TBS-T for 10 minutes per wash, incubated in species specific secondary antibody for 1 h at 21° C., washed again, and then developed using ECL immunoblotting substrate (Pierce) and visualized on HyBlot CL autoradiographic film (Denville Scientific).
# Pregnant rats (E17) of the Sprague-Dawley strain were purchased from Envigo. Embryos were surgically removed from the mothers and cortices dissected in Hanks Balanced salt solution (Gibco). The meninges were removed, and cells were dissociated using a papain dissociation system (Worthington) before being resuspended in Neurobasal medium A supplemented with antibiotic-antimycotic solution (Gibco), L-glutamine substitute (GlutaMAX™; Gibco) and factor B27 (Gibco). Cells were plated on poly-D-lysine coated glass coverslips at a density of 5×10^5 cells/well, or on poly-D-lysine coated 6-well cell culture plates at a density of 2×10^6 cells/well, and incubated at 37° C. in 5% CO2 with half media changes every 3 days. Cells were transduced with AAVs 2 days post-isolation at a multiplicity of infection (MOI) of 3000. Media containing AAV vectors were removed after 72 h and cells were fixed with 4% PFA for immunofluorescence staining or lysed for immunoblotting at 8 days post-isolation.
# (§1) After fixation, cells were permeabilized with 0.2% Triton X-100 for 15 min, washed 3 times with PBS and then incubated with blocking solution (1% BSA, 22.52 mg/mL glycine, 0.1% Tween-20 in PBS) for 1 h. Primary antibodies were diluted in blocking solution and incubated overnight at 4° C. Following three washes with PBS, cells were next incubated with fluorescent secondary antibodies diluted in blocking solution for 1 h at room temperature. Following another 3 PBS washes, nuclei were counterstained with DAPI (ThermoFisher) and then coverslips were mounted on slides using fluorescence mounting medium (DAKO) and sealed using clear nail varnish.
# Confocal images of primary cortical neurons, dopaminergic neurons, and LAMP1 staining within the SN were processed using Imaris software (Oxford instruments). Z stacks were projected to give a 3D reconstruction of the field of view and mean pixel intensity per GFP^+ cell (or RFP^+ cell for V1S/SV2 experiments) was calculated for a-syn or LAMP1 signal using the software's surfaces module. For LAMP1 staining within the SN, the number of LAMP1^+ puncta within GFP^+ cells was calculated for each field of view; 3 fields of view were imaged/animal.
# HEK293 cells = assay: LAMP1 and CD63 levels in HEK293 cells co-transfected with A53T a-syn and peptide; format: cell-based, human
# Protocol: Infected or transfected cells were scraped from 6-well dishes and lysed with lysis buffer (50 mM Tris-HCl pH7.4, 1% Nonidet P-40, 150 mM NaCl, 1 mM EDTA, 1× protease inhibitor mixture (Sigma)) for 30 min at 4° C. The insoluble pellet was removed following a 10,000 rpm spin for 5 minutes at 4° C. Lysates were analyzed by SDS-PAGE/immunoblot using 4-20% Mini-PROTEAN Tris-glycine gels (Bio-Rad) transferred to PVDF membranes and blocked in 5% milk containing PBS-Tween-20 (0.1%) for 1 h. PVDF membranes were then incubated with specified primary antibodies followed by incubation with horseradish peroxidase-conjugated secondary antibodies (Santa Cruz Biotechnology) and detected using enhanced chemiluminescence (GE Healthcare).
# as §1
sequence,measurement,setting,value
DEEIERQLKALG [PDpep1.3],total a-syn fluorescence,"[1]; neurons with V1S and SV2 or V1S alone (WT a-syn), RFP-tagged peptide vs Scramble1.3",significant lowering
same,LAMP1 levels,[1]; rat cortical neurons expressing human A53T a-syn,restored LAMP1 levels
same,YFP fluorescence from co-expressed V1S and SV2 (a-syn oligomers),[1]; rat primary cortical neurons,reduced YFP fluorescence
same,endogenous a-syn fluorescence intensity,[1]; rat primary cortical neurons,reduced fluorescence intensity
same,total A53T a-syn protein levels by immunoblotting of neuronal lysates,[1]; rat primary cortical neurons,reduction
same,A53T a-syn fluorescence intensity,"[1]; rat primary cortical neurons, AAV A53T a-syn plus GFP-tagged peptide, vs Scramble1.3",significant decrease
same,fluorescence of YFP alone,"[1]; rat primary cortical neurons, control",no effect
same,levels of truncated A53T a-syn lacking amino acids 103-140 (HA immunostaining),"[1]; rat primary cortical neurons, vs Scramble1.3",did not reduce
same,CD63 levels (MVB marker),HEK293 cells; HEK293 cells expressing A53T a-syn,return of CD63
same,LAMP1 levels,HEK293 cells; HEK293 cells overexpressing A53T a-syn,restored
